The assay deals with human DPP-IV (Homo sapiens, UniProt P27487). Description: DPP-IV activity assay (fluorogenic / colorimetric), IC50 determination.

Each structure is given as a SMILES string.

human DPP-IV, sequence (P27487 31-766): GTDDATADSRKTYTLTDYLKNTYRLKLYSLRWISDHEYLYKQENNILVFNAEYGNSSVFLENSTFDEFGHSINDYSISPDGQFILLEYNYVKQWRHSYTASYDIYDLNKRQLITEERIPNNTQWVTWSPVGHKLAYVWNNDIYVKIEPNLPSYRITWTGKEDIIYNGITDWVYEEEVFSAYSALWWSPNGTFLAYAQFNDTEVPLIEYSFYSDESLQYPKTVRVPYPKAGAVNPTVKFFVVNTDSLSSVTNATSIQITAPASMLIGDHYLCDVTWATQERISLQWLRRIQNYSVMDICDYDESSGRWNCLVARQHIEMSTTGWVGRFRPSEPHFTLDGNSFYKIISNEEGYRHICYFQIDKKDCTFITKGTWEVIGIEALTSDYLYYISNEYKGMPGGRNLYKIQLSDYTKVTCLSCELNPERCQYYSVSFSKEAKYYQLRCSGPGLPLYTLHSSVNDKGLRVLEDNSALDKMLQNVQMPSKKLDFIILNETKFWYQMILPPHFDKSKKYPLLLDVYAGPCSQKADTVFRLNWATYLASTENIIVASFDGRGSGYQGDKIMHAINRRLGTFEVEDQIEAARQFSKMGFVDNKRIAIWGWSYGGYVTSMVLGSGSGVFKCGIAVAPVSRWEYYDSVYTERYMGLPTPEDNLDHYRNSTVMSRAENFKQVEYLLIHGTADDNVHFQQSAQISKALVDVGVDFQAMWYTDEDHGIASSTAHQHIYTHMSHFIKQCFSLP
Experimental: Activity of DPP-IV inhibitors are tested with natural human DPP-IV derived from a human plasma pool or with recombinant human DPP-IV. Human citrate plasma from different donors is pooled, filtered through a 0.2 micron membrane under sterile conditions and aliquots of 1 ml are shock frozen and stored at −120° C. until used. In the colorimetric DPP-IV assay 5 to 10 μl human plasma and in the fluorometric assay 1.0 μl of human plasma in a total assay volume of 100 μl is used as an enzyme source. […] Human DPP-IV is expressed and purified from the culture medium using conventional column chromatography including size exclusion and anion and cation chromatography. […] In the calorimetric DPP-IV assay 20 ng rec.-h DPP-IV and in the fluorometric assay 2 ng rec-h DPP-IV in a total assay volume of 100 μl is used as an enzyme source.
Initial rate constants are calculated by best fit linear regression.
The absorption of pNA liberated from the calorimetric substrate is detected in a Packard SpectraCount at 405 nm continuosly every 2 minutes for 30 to 120 minutes. Initial rate constants are calculated by best fit linear regression.
DPP-IV activity assays are performed in 96 well plates at 37° C. in a total assay volume of 100 μl. […]
Kinetic parameters of the enzyme reaction are calculated at least 5 different substrate concentrations and at least 5 different test compound concentrations.

For the compound `COc1cc2c(cc1OC)[C@@H]1C[C@H](N)[C@@H](n3ccc(C)c3)CN1CC2` (racemic) [Example 33, rac-9,10-Dimethoxy-3β-(3-methyl-pyrrol-1-yl)-1,3,4,6,7,11bβ-hexahydro-2H-pyrido[2,1-a]isoquinolin-2α-ylamine], the IC50 (usually the concentration at which inhibition is half-maximal) was found to be 5.4 nM. The figure for `COc1cc2c(cc1OC)[C@@H]1C[C@H](N)[C@@H](c3cc(C)ccn3)CN1CC2` [Example 9, 9,10-Dimethoxy-3(S)-(4-methyl-pyridin-2-yl)-1,3,4,6,7,11b(S)-hexahydro-2H-pyrido[2,1a]isoquinolin-2(S)-ylamine] is 11.5 nM.

The record behind these values is patent US7718666B2, “Pyrido [2,1-a] isoquinoline derivatives” (Hoffmann-La Roche Inc., priority 2003, dated 2010).
